Data: PubChem BioAssay AID1249 (Columbia University Molecular Screening Center, 2008)
pIC50: −log10 of the molar value. Activity calls are given as the source filed them. The rule behind the calls is not given here.

Tests used:
[1] = system: cell-based imaging, cytoskeleton assembly phenotype, high content; experiment: modifiers of cytoskeleton assembly, confirmation, imaging, high-content imaging, retest and dose response (AID 1249);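 note: compound exposure lasted 24 h before fixation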;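 for inhibition: plate controls were untreated cells for no effect and reference compound treated cells for full effect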
[2] = as above; details: cell-based imaging, cytoskeleton assembly phenotype, high content; for cell count: at 10 µM, stronger effect = lower value; for inhibition: at 2 µM, stronger effect = higher value

Compound	IC50 [1]	cell count [2]	pIC50 [1]	inhibition [2]
CCN(CC)c1ccc2cc(-c3nc4ccccc4[nH]3)c(=O)oc2c1	> 10 µM (inactive)	96.6%		
COc1cc2c3nnc(-c4ccc(F)cc4)c-3cn(Cc3ccccc3)c2cc1OC	> 10 µM (inactive)	86.3%		
N#CC1=C2SCC(O)(c3ccccc3)N2C(=O)CC1c1cccs1 (configuration not stated)	> 10 µM (inactive)	26.4%		
COc1cc(N2CCCC2)c(OC)cc1/C=c1/sc2nc3ccccc3n2c1=O	> 10 µM (inactive)	87.5%		
CC(/C=N/NC(=O)c1cc(-c2ccc(Cl)cc2)nc2ccccc12)=C\c1ccco1	> 10 µM (inactive)	115%		
CCOC(=O)Nc1nc(-c2ccccc2)c(C(=O)c2ccccc2)s1	> 10 µM (inactive)	53.7%		
N=c1oc2c3c4c(cc2cc1C(=O)Nc1ccccc1)CCCN4CCC3		99.4%	5.09	
O=C(c1ccc(Br)cc1)c1cc([N+](=O)[O-])ccc1N1CCCCC1	> 10 µM (inactive)	81.7%		
CCOc1cc(CNc2ccc3c(c2)OCCO3)cc(Br)c1OC	> 10 µM (inactive)	37.1%		
COc1ccc(NC(=O)/C(Cl)=C(/Cl)S(=O)Cc2ccccc2)cn1 (configuration not stated)	> 10 µM (inactive)	48.1%		
CCCCCOc1ccc(Br)cc1/C(C)=N/NC1=NCCN1		19.4%	5.22	
CC(=O)Nc1ccc(S(=O)(=O)NC2(C(F)(F)F)C(=O)Nc3c2c(=O)[nH]c(=O)n3C)cc1 (configuration not stated)	> 10 µM (inactive)	90.8%		
CCC1=Nc2cc(C(=O)NCCCOC)ccc2Sc2ccccc21	> 10 µM (inactive)	29.1%		
Cc1c(C(=O)OCC(C)C)[nH]c2c1C(=O)CC(c1ccco1)C2 (configuration not stated)	> 10 µM (inactive)	38.8%		
Cc1ccc(C(=O)OCn2ncc(Cl)c(Cl)c2=O)cc1		1.4%	5.51	
COc1ccccc1-n1cnc2cc(NCc3cccs3)ccc21		31.6%	5.49	
Cc1ccc2[nH]c(-c3ccccc3)cc(=O)c2c1	> 10 µM (inactive)	41.3%		
Cc1csc(NC(=O)CSc2nnc(-c3ccc(S(=O)(=O)N4CCCC4)cc3)o2)n1				4.6% (inactive)
CC1=NNC(=O)/C1=C\c1cn(-c2ccccc2)nc1-c1ccc(Cl)cc1				-11.5% (inactive)
CCOC(=O)C1C(=O)NC(N2CCCCC2)=NC1c1ccco1 (configuration not stated)				-0.9% (inactive)
COc1ccc(O)c(C=Nc2cc(C)on2)c1				-0.2% (inactive)
COC(=O)Sc1nc(N2CCOCC2)c2c(c1C#N)CC(C)(C)OC2				4.8% (inactive)
CC1(C)CC(=O)c2cc(OCC(=O)NCCCN3CCN(c4ccc(F)cc4)CC3)ccc2O1				8.9% (inactive)
Cc1cc(C)cc(OCCCCCNCCO)c1				-6.8% (inactive)

Compound	IC50 [1]	cell count [2]	pIC50 [1]	inhibition [2]
O=C1CC(c2ccccc2)Cc2nc3ncnn3cc21 (configuration not stated)				2.1% (inactive)
CCOC(=O)C1CCN(C(=O)c2cn(CCOC)c(=O)c3c2c2ccccc2n3C)CC1				-1.6% (inactive)
O=C(CCSc1nnc2scc(-c3ccccc3)n12)Nc1nc(-c2ccccc2)ns1				-3.3% (inactive)
COc1ccc(-c2cc3ccc(OCc4nn[nH]n4)cc3oc2=O)cc1OC				2.8% (inactive)
CC(C)C(=O)Nc1ccc(C(=O)NNC(=O)NC2CCCCC2)cc1				-9.2% (inactive)
COC(=O)c1c(NC(=O)c2ccc(S(=O)(=O)N3CCOCC3)cc2)sc2c1CCN(C)C2				-2.4% (inactive)
Cc1ccc(Cl)cc1N1CCN(C(c2cccnc2)c2nnnn2C2CCCCC2)CC1 (configuration not stated)				12.1% (inactive)
COc1ccc(S(=O)(=O)n2ccc(-c3ccc(OCCN(C)c4ccccn4)cc3)n2)cc1				11.9% (inactive)
COc1ccc(NC(=O)/C(Cl)=C(/Cl)S(=O)(=O)Cc2ccc(C)cc2)cn1				5.2% (inactive)
CN1C(=O)N(C)C(=O)C2(Cc3ccccc3N3CCOCC32)C1=O (configuration not stated)				-1.2% (inactive)
COC(=O)c1ccccc1NC(=O)Cn1c(-c2nonc2N)nc2ccccc21				4.2% (inactive)
O=C(Cc1ccc(-n2cccc2)cc1)NC1CCCCCC1				-6.9% (inactive)
C=CCn1c(COc2ccc(Cl)cc2)nnc1SCC(=O)N/N=C/c1cccc(O)c1				-5.9% (inactive)
Cc1cccc2cc(C#N)c(SCC(=O)N3CC(=O)Nc4ccccc43)nc12		67.8%		
CCN1CCN(CC(=O)Nc2nc3ccc(OC)cc3s2)CC1				-8.7% (inactive)
O=C(c1ccc(Cl)cc1)N1CCCOC1				-2% (inactive)
Cc1cc(NC(=O)C2C3C=CC(C3)C2C(=O)O)no1 (configuration not stated)				0.1% (inactive)
Cc1cnc(NC(=O)C2CCCC2)s1				-5.2% (inactive)
Oc1ccc(Nc2nc3ccccc3nc2Nc2ccc(O)cc2)cc1				-1.9% (inactive)
Cc1ccccc1CN1C(=O)C2(OCCCO2)c2ccccc21				3.7% (inactive)
CN1CCc2nc3sc(C#N)c(N)c3c(-c3cccs3)c2C1				5.3% (inactive)
Cc1ccc(-c2nn(C(C)(C)C)c3ncnc(N)c23)cc1				-7.8% (inactive)
CCOC(=O)Cc1cc(-c2ccc(O)cc2)nc2ccc3ccccc3c12				-11.7% (inactive)
CCc1ccc(-c2nc(CN3CCC(C(=O)NCc4ccco4)CC3)c(C)o2)cc1				9.2% (inactive)

Compound	IC50 [1]	cell count [2]	pIC50 [1]	inhibition [2]
COc1ccc2[nH]c(=O)c(CN(Cc3ccc4c(c3)OCO4)C(C)=O)cc2c1				5.1% (inactive)
CCOC(=O)c1ccc(-n2c(=S)sc3c(=O)[nH]c(C)nc32)cc1				3.6% (inactive)
Cn1nc(C(=O)OCC(=O)N2CCc3ccccc32)c2ccccc2c1=O				4.3% (inactive)
OCCNCC(O)Cn1ccc2ccccc21 (configuration not stated)				-2.9% (inactive)
COc1ccc(/C=N/NC(=O)c2ccccc2Cl)cc1CSc1nc2ccccc2s1				-6.6% (inactive)
CCC(C)[C@@H](NC(=O)OC(C)(C)C)c1nnc(S(=O)(=O)Cc2cccc(C)c2)o1 (some centres not stated)				1.2% (inactive)
OC1(c2cccc(C(F)(F)F)c2)CCN(c2ncnc3c2[nH]c2ccc(F)cc23)CC1				7.8% (inactive)
CCN(CC)S(=O)(=O)c1ccc(NC(=O)C(C)N(c2ccc(OC)cc2)S(C)(=O)=O)cc1 (configuration not stated)				-14.1% (inactive)
C/C(=C\C(=O)c1cccnc1)Nc1ccc(C)c(C)c1				1.3% (inactive)
CCc1nnc(NC(=O)CSc2nnc(COc3ccccc3)n2-c2ccc(C)cc2)s1				-4.1% (inactive)
Cc1ccc(OCC(O)CN2CCN(CC(O)COc3ccc(C)cc3)CC2)cc1 (configuration not stated)				10.9% (inactive)
O=C(CF)NC(Nc1cccc2cccnc12)C(Cl)(Cl)Cl (configuration not stated)				-8.8% (inactive)
COc1ccc(OC)c(C2CC(=O)c3c([nH]c(C(=O)OC(C)C)c3C)C2)c1 (configuration not stated)				8.4% (inactive)
CC(=O)c1cccc(NS(=O)(=O)c2c(C)noc2C)c1				-13.9% (inactive)
c1ccc(-c2nnc(CSc3nncs3)o2)cc1				-7.1% (inactive)
COc1ccc(Cn2nnnc2C(c2cccs2)N2CCSCC2)cc1 (configuration not stated)				-3.9% (inactive)
COc1cccc(C(=O)Nc2cccc(-c3nc4ncccc4o3)c2C)c1				1.2% (inactive)
CC[C@@H](C)[C@H](NC(=O)OC(C)(C)C)c1nnc(S(=O)(=O)Cc2cc(C)ccc2C)o1				-2.4% (inactive)
C=CCCCOc1ccc(C(=O)O)cc1				-2.1% (inactive)
N=c1nc(N)nc2n1NC(c1ccc(F)cc1)=CS2				-1.7% (inactive)
CS(=O)(=O)N(CC(=O)NCc1ccccc1Cl)Cc1ccccc1				0% (inactive)
O=C(O)c1ccccc1Nc1ccccc1C(=O)O				0.6% (inactive)
Cc1cccc(N(CC(=O)N/N=C/c2ccc(OCC(=O)NCc3ccco3)cc2)S(C)(=O)=O)c1C				-6.2% (inactive)
O=C(Nc1ccc(Oc2ccccc2)cc1)C1CCCN(c2ncccn2)C1 (configuration not stated)				11.6% (inactive)

Compound	IC50 [1]	cell count [2]	pIC50 [1]	inhibition [2]
COC(=O)c1ccc(CSc2nnc(-c3ccncc3)n2Cc2ccccc2)o1				1.6% (inactive)
Cc1n[nH]c(=O)nc1NCc1ccccc1				4% (inactive)
CCCOC(=O)NC(CC)COC(=O)Nc1cccc(C)c1C (configuration not stated)				-5% (inactive)
CNC(=O)c1ccccc1NC(=O)c1ccco1				0.5% (inactive)
CCOC(=O)N1CCC(NC(=O)c2ccc(CNS(=O)(=O)c3ccc(F)cc3)cc2)CC1				-3.7% (inactive)
CCN1C(=O)CSC1=NC12CC3CC(CC(C3)C1)C2				-5.5% (inactive)
CCCCNC(=O)CSc1cc(=O)n(C)c2ccccc12				-21.1% (inactive)
O=C(Nc1cccnc1)c1coc(=O)c2ccccc12				8% (inactive)
COc1ccc(N2C(=O)CC(NC3CCCCNC3=O)C2=O)cc1 (configuration not stated)				-8.6% (inactive)
COC(=O)c1ccc(-n2nnnc2SCC(=O)N2CCCCC2)cc1				3.1% (inactive)
Nc1c(C(=O)NC2CCCC2)c2nc3ccccc3nc2n1N				-22.3% (inactive)
CCOc1cc(S(=O)(=O)Nc2ccccc2CC)ccc1Cl				-1.7% (inactive)
Cc1csc(NC(=O)CSc2nnc(-c3cccs3)n2C)n1				-10.1% (inactive)
COc1cccc(C(=O)COc2cccc(NC(=O)c3cccc([N+](=O)[O-])c3)c2)c1				-2.2% (inactive)
O=C(Nc1ccccc1)c1nnsc1S(=O)c1ccc(Cl)cc1 (configuration not stated)				-0.9% (inactive)
COc1cc(C2Nc3ccc4ncccc4c3C3=C2C(=O)CCC3)cc(OC)c1O (configuration not stated)				1.2% (inactive)
O=C(NCCO)C(c1ccccc1)c1ccccc1				3.5% (inactive)
O=C(NCc1ccco1)c1cc(-c2ccc(Cl)cc2)on1				10.5% (inactive)
O=C(COC(=O)c1ccccc1C(=O)c1ccc(Cl)c([N+](=O)[O-])c1)NC1CCCCCC1				-8.3% (inactive)
O=S(=O)(c1ccc(Cl)c(Cl)c1)c1snnc1-c1ccccc1				5.7% (inactive)
COc1ccc(CCN(Cc2cc3cccc(C)c3[nH]c2=O)C(=O)N2CCCC2)cc1OC				4.4% (inactive)
Cc1nc(NC(C)C)c2oc3ccccc3c2n1				4.2% (inactive)
O=C(O)c1ccc(CNCc2ccccc2Cl)cc1				21.6% (inactive)
